The text below walks through data of US12084416B2, “Substituted sulfonylurea derivatives” (Zydus Lifesciences Limited, priority 2019, dated 2024).

The structures appear in SMILES notation.

For one test, the system named is IL-1β. The test can be described thus: In-vitro IL-1β inhibition assay in PMA-differentiated, LPS-primed, ATP-stimulated THP1 cells. Particulars: Homo sapiens, THP-1, read-out: IC50 (nM), invitro IL-1β inhibitory activity. Type of test: cell-based. The procedure:
THP1 monocytes were differentiated with PMA (100 ng/mL) and incubated at 37 deg C. for 20 hrs in presence of 5% CO2. 2×10^5 differentiated cells were plated per well of 96 well tissue culture plates. The cells were primed using 500 ng/mL Lipopolysaccharide and incubating for 4 h under the same condition. The cells were then treated with various concentrations of the compounds for 30 min followed by treatment with 5 mM ATP for 1 hr. The supernatants were collected and analyzed by IL-1b (Mabtech Cat #3415-1H-20) or TNF-α (Mabtech; Cat #3510-1H-20) detection kit. The data were analyzed using GraphPad Prism V7.0. Dose Response Curve (DRC) was constructed to determine the IC50 value by fitting percentage […] data to the GraphPad Prism using nonlinear regression analysis.
With `O=C(Nc1c2c(cc3c1CCC3)CCC2)NS(=O)(=O)/C=C/[C@H]1CCCN1C1CCSCC1` [Example 139, Sodium(R,E)-((1,2,3,5,6,7-hexahydro-s-indacen-4-yl)carbamoyl)((2-(1-(tetrahydro-2H-thiopyran-4-yl)pyrrolidin-2-yl)vinyl)sulfonyl)amide], the IC50 was 21 nM.
On the same count and under the same terms, in the case of `CN1CCC[C@@]1(C)/C=C/S(=O)(=O)NC(=O)Nc1c2c(cc3c1CCC3)CCC2` [Example 144, sodium(S,E)-((2-(1,2-dimethylpyrrolidin-2-yl)vinyl)sulfonyl)((1,2,3,5,6,7-hexahydro-s-indacen-4-yl)carbamoyl)amide] it was 8.6 nM.
As for `CC(C)(C)OC(=O)N1CCC1(C)/C=C/S(=O)(=O)NC(=O)Nc1c2c(cc3c1CCC3)CCC2` (centres unmarked) [Example 147, tert-butyl(E)-2-(2-(N-((1,2,3,5,6,7-hexahydro-s-indacen-4-yl)carbamoyl)sulfamoyl)vinyl)-2-methylazetidine-1-carboxylate], the IC50 was 11 nM.
`CC[C@@]1(/C=C/S(=O)(=O)NC(=O)Nc2c3c(cc4c2CCC4)CCC3)CCCN1C(=O)OC(C)(C)C` [Example 149, tert-butyl(S,E)-2-ethyl-2-(2-(N-((1,2,3,5,6,7-hexahydro-s-indacen-4-yl)carbamoyl)sulfamoyl)vinyl)pyrrolidine-1-carboxylate]: the IC50 was 11 nM.
Regarding `CN1CCC[C@@]1(C)/C=C/S(=O)(=O)NC(=O)Nc1cc2c(c3c1CCC3)CCC2` [Example 153, (S,E)-2-(1,2-dimethylpyrrolidin-2-yl)-N-((1,2,3,6,7,8-hexahydro-as-indacen-4-yl)carbamoyl)ethene-1-sulfonamide], the IC50 turned out to be 32 nM.

The test is the same for the next values; noted with them: Homo sapiens, THP-1; THP1 monocytes differentiated with PMA, primed with 500 ng/mL LPS, compound 30 min, 5 mM ATP 1 hr; IL-1β in supernatant; read-out: IC50 (nM), invitro IL-1β inhibitory activity.
With `CC(=O)N1CCC[C@@H]1/C=C/S(=O)(=O)NC(=O)Nc1c2c(cc3c1CCC3)CCC2` [Example 8, (R,E)-2-(1-acetylpyrrolidin-2-yl)-N-((1,2,3,5,6,7-hexahydro-s-indacen-4-yl)carbamoyl)-ethene-1-sulfonamide], the IC50 is 10.7 nM.
Regarding `O=C(Nc1c2c(cc3c1CCC3)CCC2)NS(=O)(=O)/C=C/[C@@H]1CCCN1S(=O)(=O)c1ccc(Cl)s1` [Example 90, (S,E)-2-(1-((5-chlorothiophen-2-yl)sulfonyl)pyrrolidin-2-yl)-N-((1,2,3,5,6,7-hexahydro-s-indacen-4-yl)carbamoyl)ethenesulfonamide], the IC50 is 16 nM.
In the case of `O=C(Nc1c2c(cc3c1CCC3)CCC2)NS(=O)(=O)/C=C/C1CCCCN1` (centres unmarked) [Example 100, (E)-N-((1,2,3,5,6,7-hexahydro-s-indacen-4-yl)carbamoyl)-2-(piperidin-2-yl)ethene-1-sulfonamide], the IC50 amounted to 70 nM.
On to `O=C(Nc1c2c(cc3c1CCC3)CCC2)NS(=O)(=O)/C=C/[C@H]1CCCN1S(=O)(=O)c1cccc(F)c1` [Example 13, (R,E)-2-(1-((3-fluorophenyl)sulfonyl)pyrrolidin-2-yl)-N-((1,2,3,5,6,7-hexahydro-s-indacen-4-yl)carbamoyl)ethenesulfonamide], for which the IC50 turned out to be 9 nM.
For the compound `C[C@@]1(/C=C/S(=O)(=O)NC(=O)Nc2c3c(cc4c2CCC4)CCC3)CCCN1` [Example 105, (S,E)-N-((1,2,3,5,6,7-hexahydro-s-indacen-4-yl)carbamoyl)-2-(2-methylpyrrolidin-2-yl)ethene-1-sulfonamide], the IC50 was found to be 61 nM.
For the compound `CS(=O)(=O)CCCN1CCC[C@@H]1/C=C/S(=O)(=O)NC(=O)Nc1c2c(cc3c1CCC3)CCC2` [Example 23, (R,E)-N-((1,2,3,5,6,7-hexahydro-s-indacen-4-yl)carbamoyl)-2-(1-(3-(methylsulfonyl)propyl)pyrrolidin-2-yl)ethenesulfonamide], the IC50 amounted to 14 nM.
The same measure, in the same setting: for `CCS(=O)(=O)N1CCC[C@@H]1/C=C/S(=O)(=O)NC(=O)Nc1c2c(cc3c1CCC3)CCC2` [Example 21, (R,E)-2-(1-(ethylsulfonyl)pyrrolidin-2-yl)-N-((1,2,3,5,6,7-hexahydro-s-indacen-4-yl)carbamoyl)ethene-1-sulfonamide] the value was 2.4 nM; for `CC(C)(C)OC(=O)N1CC2CC(N3CCC[C@@H]3/C=C/S(=O)(=O)NC(=O)Nc3c4c(cc5c3CCC5)CCC4)CC2C1` (stereo partly drawn) [Example 131, tert-butyl 5-((R)-2-((E)-2-(N-((1,2,3,5,6,7-hexahydro-s-indacen-4-yl)carbamoyl)sulfamoyl)vinyl)pyrrolidin-1-yl)hexahydrocyclopenta[c]pyrrole-2 (1H)-carboxylate], 16 nM.
In the case of `CS(=O)(=O)N1CCCC(/C=C/S(=O)(=O)NC(=O)Nc2c3c(cc4c2CCC4)CCC3)C1` (centres unmarked) [Example 84, (E)-N-((1,2,3,5,6,7-hexahydro-s-indacen-4-yl)carbamoyl)-2-(1-(methylsulfonyl)piperidin-3-yl)ethenesulfonamide], the IC50 worked out at 8.5 nM.
On the same count and under the same terms, for `CC(=O)N1CCC1/C=C/S(=O)(=O)NC(=O)Nc1c2c(cc3c1CCC3)CCC2` (centres unmarked) [Example 125, (E)-2-(1-acetylazetidin-2-yl)-N-((1,2,3,5,6,7-hexahydro-s-indacen-4-yl)carbamoyl)ethene-1-sulfonamide] the value was 16.4 nM.
Still for that read-out and setting: in the case of `O=C(Nc1c2c(cc3c1CCC3)CCC2)NS(=O)(=O)/C=C/[C@H]1CCCN1C(=O)c1cnccn1` [Example 14, (R,E)-N-((1,2,3,5,6,7-hexahydro-s-indacen-4-yl)carbamoyl)-2-(1-(pyrazine-2-carbonyl)pyrrolidin-2-yl)ethenesulfonamide] it was 17 nM; in that of `O=C(Nc1c2c(cc3c1CCC3)CCC2)NS(=O)(=O)/C=C/[C@@H]1CCCN1S(=O)(=O)c1cccnc1` [Example 63, (S,E)-N-((1,2,3,5,6,7-hexahydro-s-indacen-4-yl)carbamoyl)-2-(1-(pyridin-3-ylsulfonyl)-pyrrolidin-2-yl)ethenesulfonamide], 8 nM.
As to `O=C(Nc1c2c(cc3c1CCC3)CCC2)NS(=O)(=O)/C=C/C1CCOCC1` [Example 71, (E)-N-((1,2,3,5,6,7-hexahydro-s-indacen-4-yl)carbamoyl)-2-(tetrahydro-2H-pyran-4-yl)ethenesulfonamide], the IC50 came out at 87 nM.
Take `C[C@@]1(/C=C/S(=O)(=O)NC(=O)Nc2c3c(cc4c2CCC4)CCC3)CCCN1S(=O)(=O)C1CC1` [Example 129, (S,E)-2-(1-(cyclopropylsulfonyl)-2-methylpyrrolidin-2-yl)-N-((1,2,3,5,6,7-hexahydro-s-indacen-4-yl)carbamoyl)ethene-1-sulfonamide]: the IC50 turned out to be 5.9 nM.
As for `CC(C)(C)OC(=O)N1CCC[C@@]1(C)/C=C/S(=O)(=O)NC(=O)Nc1c2c(cc3c1CCC3)CCC2` [Example 111, tert-butyl(S,E)-2-(2-(N-((1,2,3,5,6,7-hexahydro-s-indacen-4-yl)carbamoyl)sulfamoyl)vinyl)-2-methylpyrrolidine-1-carboxylate], the IC50 came to 4.3 nM.
For `CC(C)(C)OC(=O)N1CCC[C@@H]1/C=C/S(=O)(=O)NC(=O)Nc1c2c(cc3c1CCC3)CCC2` [Example 10, tert-butyl (R,E)-2-(2-(N-((1,2,3,5,6,7-hexahydro-s-indacen-4-yl)carbamoyl)sulfamoyl)-vinyl)pyrrolidine-1-carboxylate], the IC50 was 64 nM.
Still for that read-out and setting: for `O=C(Nc1c2c(cc3c1CCC3)CCC2)NS(=O)(=O)/C=C/[C@@H]1CCCN1S(=O)(=O)Cc1ccccc1` [Example 91, (S,E)-2-(1-(benzylsulfonyl)pyrrolidin-2-yl)-N-((1,2,3,5,6,7-hexahydro-s-indacen-4-yl)carbamoyl)ethenesulfonamide] the value was 2.9 nM; for `C=CCN1CCC[C@H]1/C=C/S(=O)(=O)NC(=O)Nc1c2c(cc3c1CCC3)CCC2` [Example 127, (S,E)-2-(1-allylpyrrolidin-2-yl)-N-((1,2,3,5,6,7-hexahydro-s-indacen-4-yl)carbamoyl)ethene-1-sulfonamide], 5.6 nM.

A further test relates to IL-1β. As to the kind of experiment: In-vivo LPS and ATP induced IL-1β assay. Particulars: Mus musculus, 2.5 h; Dose 10 mpk, po; female C57 mice; serum IL-1β by ELISA; read-out: % IL-1β inhibition in LPS + ATP challenged C57 mice. The protocol:
All the animal experiments were carried out in female rats and mice, bred in-house. Animals were housed in groups of 6 animals per cage, for a week, in order to habituate them to vivarium conditions (25 f 4° C., 60-65% relative humidity, 12:12 h light:dark cycle, with lights on at 7.30 am). All the animal experiments were carried out according to the internationally valid guidelines following approval by the ‘Zydus Research Center animal ethical committee’.
Female C57 mice (6-8 weeks) received intraperitoneal injection of 50 μg/mouse of lipopolysaccharide (LPS) in PBS. Animals were treated immediately with the test compounds or the vehicle. After 2 h of LPS injection, animals were administered with ATP at 12.5 mg/mouse dissolved in PBS via intraperitoneal route. After 30 minutes of ATP injection, serum was collected for IL-1β estimation by ELISA.
For `O=C(Nc1c2c(cc3c1CCC3)CCC2)NS(=O)(=O)/C=C/[C@H]1CCCN1CC1CC1` [Example 5, (R,E)-2-(1-(cyclopropylmethyl)pyrrolidin-2-yl)-N-((1,2,3,5,6,7-hexahydro-s-indacen-4-yl)carbamoyl)ethene-1-sulfonamide], the inhibition in vivo at 10 mg/kg was determined as 70%.
Still for that read-out and setting: for `CC(C)N1CCC[C@@H]1/C=C/S(=O)(=O)NC(=O)Nc1c2c(cc3c1CCC3)CCC2` [Example 22, (R,E)-N-((1,2,3,5,6,7-hexahydro-s-indacen-4-yl)carbamoyl)-2-(1-isopropylpyrrolidin-2-yl)ethene-1-sulfonamide] the value was 83%; for `CN1CCC[C@H]1/C=C/S(=O)(=O)NC(=O)Nc1cc2c(c3c1CCC3)CCC2` [Example 102, (E)-N-((1,2,3,6,7,8-hexahydro-as-indacen-4-yl)carbamoyl)-2-(1-methylpyrrolidin-2-yl)ethene-1-sulfonamide], 74%.
